Our source for the MIC values is ChEMBL document CHEMBL5143590, “Dihydropyrimidinone imidazoles as unique structural antibacterial agents for drug-resistant gram-negative pathogens” (Eur J Med Chem, 2022).

Holding throughout (type): functional
The subject of one experiment is Enterococcus faecalis. In words: Antibacterial activity against Enterococcus faecalis assessed as inhibition of bacterial growth by two fold serial dilution method.
The subject of experiment [1] is Pseudomonas aeruginosa. Nature of the experiment: Antibacterial activity against Pseudomonas aeruginosa assessed as inhibition of bacterial growth by two fold serial dilution method.
Experiment [2] relates to Staphylococcus aureus. In words: Antibacterial activity against Staphylococcus aureus 29213 assessed as inhibition of bacterial growth by two fold serial dilution method.
In experiment [3] the test system is Escherichia coli. Nature of the experiment: Antibacterial activity against Escherichia coli assessed as inhibition of bacterial growth by two fold serial dilution method.
A further experiment has as its system Klebsiella pneumoniae. In words: Antibacterial activity against Klebsiella pneumoniae assessed as inhibition of bacterial growth by two fold serial dilution method.
For experiment [4], the system named is Staphylococcus aureus. In words: Antibacterial activity against methicillin-resistant Staphylococcus aureus N315 assessed as inhibition of bacterial growth by two fold serial dilution method.
Experiment [5] deals with Staphylococcus aureus. Nature of the experiment: Antibacterial activity against Staphylococcus aureus assessed as inhibition of bacterial growth by two fold serial dilution method.
Experiment [6] relates to Staphylococcus aureus. Nature of the experiment: Antibacterial activity against Staphylococcus aureus 25923 assessed as inhibition of bacterial growth by two fold serial dilution method.
Experiment [7] relates to Pseudomonas aeruginosa. Nature of the experiment: Antibacterial activity against Pseudomonas aeruginosa 27853 assessed as inhibition of bacterial growth by two fold serial dilution method.
Experiment [8] deals with Escherichia coli. In words: Antibacterial activity against Escherichia coli 25922 assessed as inhibition of bacterial growth by two fold serial dilution method.
In the next experiment the test system is Acinetobacter baumannii. Nature of the experiment: Antibacterial activity against Acinetobacter baumannii assessed as inhibition of bacterial growth by two fold serial dilution method.

In general, MIC refers to the lowest concentration found to suppress growth.

≈ marks a conversion by molar mass, not a printed value.

Regarding `CCCCc1nc(Cl)c(C2NC(=O)NC(C)=C2C(=O)OCC)n1CCN1CCOCC1` (stereo not drawn), the MIC in the experiment with Enterococcus faecalis amounted to 128 µg/mL (≈ 282 µM); in the experiment with Pseudomonas aeruginosa [1] it was 256 µg/mL (≈ 564 µM); in the experiment with Staphylococcus aureus [2], 128 µg/mL (≈ 282 µM); in the experiment with Escherichia coli [3], 128 µg/mL (≈ 282 µM); with Klebsiella pneumoniae, 64 µg/mL (≈ 141 µM); in the experiment on Staphylococcus aureus [4], 64 µg/mL (≈ 141 µM). Also, the minimal inhibitory concentration (MIC) in the experiment with Staphylococcus aureus [5] is 32 µg/mL (≈ 70.5 µM); in the experiment on Staphylococcus aureus [6] it was 128 µg/mL (≈ 282 µM); in the experiment with Pseudomonas aeruginosa [7], 256 µg/mL (≈ 564 µM); in the experiment with Escherichia coli [8], 128 µg/mL (≈ 282 µM); with Acinetobacter baumannii, 128 µg/mL (≈ 282 µM).
Consider `CCCCc1nc(Cl)c(C2NC(=O)NC(C)=C2C(=O)OCC)n1C` (stereo not drawn), for which the MIC in the experiment on Enterococcus faecalis amounted to 128 µg/mL (≈ 361 µM); in the experiment on Pseudomonas aeruginosa [1] it was 64 µg/mL (≈ 180 µM); with Staphylococcus aureus [2] it was 64 µg/mL (≈ 180 µM); with Escherichia coli [3] it was 128 µg/mL (≈ 361 µM); in the experiment on Klebsiella pneumoniae, 128 µg/mL (≈ 361 µM); with Staphylococcus aureus [4], 64 µg/mL (≈ 180 µM). The MIC in the experiment on Staphylococcus aureus [5] came out at 32 µg/mL (≈ 90.2 µM); in the experiment with Staphylococcus aureus [6] it was 256 µg/mL (≈ 721 µM); in the experiment on Pseudomonas aeruginosa [7] it was 256 µg/mL (≈ 721 µM); in the experiment with Escherichia coli [8], 64 µg/mL (≈ 180 µM); in the experiment with Acinetobacter baumannii, 64 µg/mL (≈ 180 µM).
For the compound `NC1CCN(c2c(F)cc3c(=O)c(C(=O)O)cn(C4CC4)c3c2Cl)C1` (stereo not drawn) [CLINAFLOXACIN], the MIC with Enterococcus faecalis worked out at 0.5 µg/mL (≈ 1.37 µM); with Pseudomonas aeruginosa [1], 1 µg/mL (≈ 2.73 µM); in the experiment with Staphylococcus aureus [2] it was 0.5 µg/mL (≈ 1.37 µM); in the experiment on Escherichia coli [3] it was 0.5 µg/mL (≈ 1.37 µM); in the experiment on Klebsiella pneumoniae, 1 µg/mL (≈ 2.73 µM); in the experiment with Staphylococcus aureus [4], 1 µg/mL (≈ 2.73 µM). Further, the MIC in the experiment with Staphylococcus aureus [5] was determined as 0.5 µg/mL (≈ 1.37 µM); with Staphylococcus aureus [6] it was 0.5 µg/mL (≈ 1.37 µM); with Pseudomonas aeruginosa [7], 1 µg/mL (≈ 2.73 µM); with Escherichia coli [8], 1 µg/mL (≈ 2.73 µM); in the experiment with Acinetobacter baumannii it was 2 µg/mL (≈ 5.47 µM).
Regarding `CCCCc1nc(Cl)c(C2NC(=O)NC(C)=C2C(=O)OCC)n1CCF` (stereo not drawn), the MIC with Enterococcus faecalis turned out to be 64 µg/mL (≈ 165 µM); in the experiment with Pseudomonas aeruginosa [1], 64 µg/mL (≈ 165 µM); with Staphylococcus aureus [2], 64 µg/mL (≈ 165 µM); in the experiment on Escherichia coli [3] it was 32 µg/mL (≈ 82.7 µM); in the experiment on Klebsiella pneumoniae, 128 µg/mL (≈ 331 µM); in the experiment on Staphylococcus aureus [4], 128 µg/mL (≈ 331 µM). Besides, the MIC in the experiment with Staphylococcus aureus [5] came to 32 µg/mL (≈ 82.7 µM); in the experiment with Staphylococcus aureus [6] it was 64 µg/mL (≈ 165 µM); in the experiment on Pseudomonas aeruginosa [7], 64 µg/mL (≈ 165 µM); in the experiment with Escherichia coli [8], 128 µg/mL (≈ 331 µM); in the experiment with Acinetobacter baumannii it was 64 µg/mL (≈ 165 µM).
Consider `CCCCc1nc(Cl)c(C2NC(=O)NC(C)=C2C(=O)OCC)n1S(=O)(=O)c1ccc(F)cc1` (stereo not drawn), for which the minimum inhibitory concentration (MIC) in the experiment with Enterococcus faecalis came out at 64 µg/mL (≈ 128 µM); with Pseudomonas aeruginosa [1], 32 µg/mL (≈ 64.1 µM); in the experiment on Staphylococcus aureus [2], 32 µg/mL (≈ 64.1 µM); with Escherichia coli [3] it was 32 µg/mL (≈ 64.1 µM); in the experiment on Klebsiella pneumoniae, 128 µg/mL (≈ 257 µM); in the experiment with Staphylococcus aureus [4], 16 µg/mL (≈ 32.1 µM). For the same compound, the MIC in the experiment with Staphylococcus aureus [5] is 64 µg/mL (≈ 128 µM); with Staphylococcus aureus [6], 64 µg/mL (≈ 128 µM); in the experiment on Pseudomonas aeruginosa [7] it was 64 µg/mL (≈ 128 µM); with Escherichia coli [8] it was 32 µg/mL (≈ 64.1 µM); with Acinetobacter baumannii it was 64 µg/mL (≈ 128 µM).
Take `CCCCc1nc(Cl)c(C2NC(=O)NC(CN(c3nccs3)S(=O)(=O)c3ccc(N)cc3)=C2C(=O)OCC)[nH]1` (stereo not drawn): the MIC with Enterococcus faecalis was found to be 256 µg/mL (≈ 431 µM); in the experiment with Pseudomonas aeruginosa [1], 256 µg/mL (≈ 431 µM); in the experiment on Staphylococcus aureus [2] it was 256 µg/mL (≈ 431 µM); with Escherichia coli [3] it was 256 µg/mL (≈ 431 µM); in the experiment with Klebsiella pneumoniae, 256 µg/mL (≈ 431 µM); with Staphylococcus aureus [4], 128 µg/mL (≈ 215 µM). Besides, the MIC with Staphylococcus aureus [5], in the experiment on Staphylococcus aureus [6], in the experiment on Pseudomonas aeruginosa [7], with Escherichia coli [8] and in the experiment with Acinetobacter baumannii was 256 µg/mL (≈ 431 µM) in each case.
In the case of `Cc1cc(NS(=O)(=O)c2ccc(N)cc2)no1` [SULFAMETHOXAZOLE], the MIC in the experiment on Enterococcus faecalis was determined as 64 µg/mL (≈ 253 µM); in the experiment on Pseudomonas aeruginosa [1], 64 µg/mL (≈ 253 µM); with Staphylococcus aureus [2] it was 16 µg/mL (≈ 63.2 µM); in the experiment with Escherichia coli [3], 32 µg/mL (≈ 126 µM); in the experiment with Klebsiella pneumoniae it was 32 µg/mL (≈ 126 µM); with Staphylococcus aureus [4] it was 1 µg/mL (≈ 3.95 µM). In addition, the MIC in the experiment with Staphylococcus aureus [5] amounted to 32 µg/mL (≈ 126 µM); in the experiment with Staphylococcus aureus [6] it was 128 µg/mL (≈ 505 µM); in the experiment on Pseudomonas aeruginosa [7] it was 32 µg/mL (≈ 126 µM); in the experiment on Escherichia coli [8] it was 8 µg/mL (≈ 31.6 µM); in the experiment with Acinetobacter baumannii, 32 µg/mL (≈ 126 µM).
Take `CCCCc1nc(Cl)c(C2NC(=O)NC(C)=C2C(=O)OCC)n1S(=O)(=O)c1ccc(C(C)(C)C)cc1` (stereo not drawn): the minimal inhibitory concentration (MIC) worked out at 128 µg/mL (≈ 238 µM) with Enterococcus faecalis; 256 µg/mL (≈ 477 µM) in the experiment on Pseudomonas aeruginosa [1]; 64 µg/mL (≈ 119 µM) in the experiment on Staphylococcus aureus [2]; 64 µg/mL (≈ 119 µM) in the experiment with Escherichia coli [3]; 128 µg/mL (≈ 238 µM) with Klebsiella pneumoniae; 64 µg/mL (≈ 119 µM) in the experiment with Staphylococcus aureus [4]. Further, the MIC with Staphylococcus aureus [5] was 64 µg/mL (≈ 119 µM); in the experiment on Staphylococcus aureus [6], 32 µg/mL (≈ 59.6 µM); with Pseudomonas aeruginosa [7], 64 µg/mL (≈ 119 µM); with Escherichia coli [8], 64 µg/mL (≈ 119 µM); in the experiment on Acinetobacter baumannii, 128 µg/mL (≈ 238 µM).
